{
  "source": "ChEMBL document CHEMBL6109134",
  "about": "“Discovery of AMG 193, an MTA-Cooperative PRMT5 Inhibitor for the Treatment of MTAP-Deleted Cancers” (J Med Chem, 2025)",
  "key": {"[1]": {"target": "T1, Nuclear receptor subfamily 1 group I member 2 (Homo sapiens, UniProt O75469)", "T1 sequence (O75469 whole entry)": "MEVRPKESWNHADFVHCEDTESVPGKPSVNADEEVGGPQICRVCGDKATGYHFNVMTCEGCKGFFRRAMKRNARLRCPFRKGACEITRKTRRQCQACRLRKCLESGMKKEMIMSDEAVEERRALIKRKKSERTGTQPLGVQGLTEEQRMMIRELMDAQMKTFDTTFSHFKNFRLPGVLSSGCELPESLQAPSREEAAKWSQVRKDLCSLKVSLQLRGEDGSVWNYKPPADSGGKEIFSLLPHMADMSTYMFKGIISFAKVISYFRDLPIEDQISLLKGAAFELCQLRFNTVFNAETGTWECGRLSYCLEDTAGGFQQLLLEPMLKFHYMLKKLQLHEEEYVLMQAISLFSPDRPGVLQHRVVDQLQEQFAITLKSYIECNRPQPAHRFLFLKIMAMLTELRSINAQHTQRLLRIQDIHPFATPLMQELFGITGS", "test": "Activation of human PXR in human HepG2 cells co-transfected with CYP3A4-luciferase at 10 uM incubated for 1 day relative to control", "details": "hepg2, 24 h"}, "[2]": {"test_system": "DOHH-2", "test": "Antiproliferative activity against human DOHH-2 cells assessed as effect on cell viability", "format": "functional, cell-based"}, "[3]": {"target": "Voltage-gated inwardly rectifying potassium channel KCNH2 (Homo sapiens, UniProt Q12809)", "sequence (Q12809 whole entry)": "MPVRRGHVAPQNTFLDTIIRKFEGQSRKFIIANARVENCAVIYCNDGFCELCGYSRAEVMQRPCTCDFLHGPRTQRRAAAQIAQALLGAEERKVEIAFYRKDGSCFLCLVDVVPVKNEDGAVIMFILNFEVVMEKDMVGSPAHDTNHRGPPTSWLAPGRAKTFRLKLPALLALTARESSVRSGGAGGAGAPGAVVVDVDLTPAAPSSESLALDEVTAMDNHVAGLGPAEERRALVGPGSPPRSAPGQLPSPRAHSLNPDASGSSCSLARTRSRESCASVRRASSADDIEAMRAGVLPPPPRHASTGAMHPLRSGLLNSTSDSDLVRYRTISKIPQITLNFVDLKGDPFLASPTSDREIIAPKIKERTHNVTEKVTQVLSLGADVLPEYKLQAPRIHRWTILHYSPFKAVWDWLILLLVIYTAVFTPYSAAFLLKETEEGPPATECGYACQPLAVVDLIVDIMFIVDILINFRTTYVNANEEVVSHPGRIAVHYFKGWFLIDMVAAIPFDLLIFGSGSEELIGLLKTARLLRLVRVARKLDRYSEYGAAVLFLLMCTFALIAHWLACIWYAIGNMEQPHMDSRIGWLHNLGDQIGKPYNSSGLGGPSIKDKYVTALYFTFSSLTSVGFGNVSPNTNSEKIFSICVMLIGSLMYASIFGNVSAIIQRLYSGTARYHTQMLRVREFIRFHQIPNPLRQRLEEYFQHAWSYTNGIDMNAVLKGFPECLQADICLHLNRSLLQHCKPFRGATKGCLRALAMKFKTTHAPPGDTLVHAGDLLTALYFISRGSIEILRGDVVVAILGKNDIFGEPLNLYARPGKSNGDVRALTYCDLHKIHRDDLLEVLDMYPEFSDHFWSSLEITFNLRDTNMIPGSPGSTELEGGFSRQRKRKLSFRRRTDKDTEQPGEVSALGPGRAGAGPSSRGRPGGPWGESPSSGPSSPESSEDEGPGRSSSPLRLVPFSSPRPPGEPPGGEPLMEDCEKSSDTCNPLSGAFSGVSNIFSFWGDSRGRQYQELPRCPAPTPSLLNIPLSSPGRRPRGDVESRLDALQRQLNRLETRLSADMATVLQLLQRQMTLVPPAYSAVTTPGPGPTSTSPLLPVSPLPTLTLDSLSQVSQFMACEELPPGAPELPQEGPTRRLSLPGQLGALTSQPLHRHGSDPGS", "test": "Inhibition of human ERG by QPatch clamp method"}, "[4]": {"target": "Cytochrome P450 3A4 (Homo sapiens, UniProt P08684)", "sequence (P08684 whole entry)": "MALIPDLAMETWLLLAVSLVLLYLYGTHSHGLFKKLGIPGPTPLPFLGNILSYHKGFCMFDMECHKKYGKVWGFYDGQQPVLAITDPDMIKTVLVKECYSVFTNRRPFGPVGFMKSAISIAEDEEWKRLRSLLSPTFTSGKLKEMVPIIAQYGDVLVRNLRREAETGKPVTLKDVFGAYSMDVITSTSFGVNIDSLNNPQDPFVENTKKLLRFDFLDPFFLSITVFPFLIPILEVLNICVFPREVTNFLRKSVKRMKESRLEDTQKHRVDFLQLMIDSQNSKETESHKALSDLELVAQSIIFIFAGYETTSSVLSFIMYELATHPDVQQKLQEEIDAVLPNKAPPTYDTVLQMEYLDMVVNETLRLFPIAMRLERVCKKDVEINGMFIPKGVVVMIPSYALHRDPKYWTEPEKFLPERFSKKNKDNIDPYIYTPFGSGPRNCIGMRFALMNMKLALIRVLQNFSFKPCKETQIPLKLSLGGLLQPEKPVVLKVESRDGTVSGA", "test": "Inhibition of CYP3A4 (unknown origin)"}, "[5]": {"test": "Metabolic stability in rat hepatocytes assessed as intrinsic clearance measured per 10^6 cells", "format": "ADME, cell-based, Hepatocyte", "details": "read-out: CLH"}, "[6]": {"test": "Clearance in Sprague-Dawley rat at 0.5 mg/kg, iv", "details": "in vivo"}, "[7]": {"test": "Unbound clearance in Sprague-Dawley rat at 0.5 mg/kg, iv", "format": "ADME, organism-based", "details": "in vivo"}, "[8]": {"test": "Toxicity in female rat up to 25 mg/kg, po administered as single dose for 14 days", "format": "organism-based", "details": "in vivo, 336 h, time 14 day"}, "[9]": {"test": "Toxicity in male rat up to 75 mg/kg, po administered as single dose for 14 days", "format": "organism-based", "details": "in vivo, 336 h, time 14 day"}, "[10]": {"test": "Passive permeability in MDCK-II cells at 0.1 to 10 uM", "format": "ADME, cell-based, Canis lupus familiaris", "details": "dog, dose 0.1-10 µM, read-out: permeability"}, "[11]": {"test": "Unbound brain-to-plasma concentration ratio in female Sprague-Dawley rat at 25 mg/kg, po administered as single dose", "format": "ADME, organism-based", "details": "read-out: K(p,uu,brain)"}, "[12]": {"test": "Unbound CSF-to-plasma concentration ratio in male Sprague-Dawley rat at 25 mg/kg, po administered as single dose", "format": "ADME, organism-based"}, "[13]": {"test": "Unbound CSF-to-plasma concentration ratio in female Sprague-Dawley rat at 25 mg/kg, po administered as single dose", "format": "ADME, organism-based"}, "[14]": {"test": "Unbound brain-to-plasma concentration ratio in male Sprague-Dawley rat at 75 mg/kg, po administered as single dose", "format": "ADME, organism-based", "details": "read-out: K(p,uu,brain)"}, "[15]": {"test": "Unbound CSF-to-plasma concentration ratio in female Sprague-Dawley rat at 75 mg/kg, po administered as single dose", "format": "ADME, organism-based"}, "[16]": {"target": "DNA (cytosine-5)-methyltransferase 1 (Homo sapiens) (UniProt P26358)", "sequence (P26358 whole entry)": "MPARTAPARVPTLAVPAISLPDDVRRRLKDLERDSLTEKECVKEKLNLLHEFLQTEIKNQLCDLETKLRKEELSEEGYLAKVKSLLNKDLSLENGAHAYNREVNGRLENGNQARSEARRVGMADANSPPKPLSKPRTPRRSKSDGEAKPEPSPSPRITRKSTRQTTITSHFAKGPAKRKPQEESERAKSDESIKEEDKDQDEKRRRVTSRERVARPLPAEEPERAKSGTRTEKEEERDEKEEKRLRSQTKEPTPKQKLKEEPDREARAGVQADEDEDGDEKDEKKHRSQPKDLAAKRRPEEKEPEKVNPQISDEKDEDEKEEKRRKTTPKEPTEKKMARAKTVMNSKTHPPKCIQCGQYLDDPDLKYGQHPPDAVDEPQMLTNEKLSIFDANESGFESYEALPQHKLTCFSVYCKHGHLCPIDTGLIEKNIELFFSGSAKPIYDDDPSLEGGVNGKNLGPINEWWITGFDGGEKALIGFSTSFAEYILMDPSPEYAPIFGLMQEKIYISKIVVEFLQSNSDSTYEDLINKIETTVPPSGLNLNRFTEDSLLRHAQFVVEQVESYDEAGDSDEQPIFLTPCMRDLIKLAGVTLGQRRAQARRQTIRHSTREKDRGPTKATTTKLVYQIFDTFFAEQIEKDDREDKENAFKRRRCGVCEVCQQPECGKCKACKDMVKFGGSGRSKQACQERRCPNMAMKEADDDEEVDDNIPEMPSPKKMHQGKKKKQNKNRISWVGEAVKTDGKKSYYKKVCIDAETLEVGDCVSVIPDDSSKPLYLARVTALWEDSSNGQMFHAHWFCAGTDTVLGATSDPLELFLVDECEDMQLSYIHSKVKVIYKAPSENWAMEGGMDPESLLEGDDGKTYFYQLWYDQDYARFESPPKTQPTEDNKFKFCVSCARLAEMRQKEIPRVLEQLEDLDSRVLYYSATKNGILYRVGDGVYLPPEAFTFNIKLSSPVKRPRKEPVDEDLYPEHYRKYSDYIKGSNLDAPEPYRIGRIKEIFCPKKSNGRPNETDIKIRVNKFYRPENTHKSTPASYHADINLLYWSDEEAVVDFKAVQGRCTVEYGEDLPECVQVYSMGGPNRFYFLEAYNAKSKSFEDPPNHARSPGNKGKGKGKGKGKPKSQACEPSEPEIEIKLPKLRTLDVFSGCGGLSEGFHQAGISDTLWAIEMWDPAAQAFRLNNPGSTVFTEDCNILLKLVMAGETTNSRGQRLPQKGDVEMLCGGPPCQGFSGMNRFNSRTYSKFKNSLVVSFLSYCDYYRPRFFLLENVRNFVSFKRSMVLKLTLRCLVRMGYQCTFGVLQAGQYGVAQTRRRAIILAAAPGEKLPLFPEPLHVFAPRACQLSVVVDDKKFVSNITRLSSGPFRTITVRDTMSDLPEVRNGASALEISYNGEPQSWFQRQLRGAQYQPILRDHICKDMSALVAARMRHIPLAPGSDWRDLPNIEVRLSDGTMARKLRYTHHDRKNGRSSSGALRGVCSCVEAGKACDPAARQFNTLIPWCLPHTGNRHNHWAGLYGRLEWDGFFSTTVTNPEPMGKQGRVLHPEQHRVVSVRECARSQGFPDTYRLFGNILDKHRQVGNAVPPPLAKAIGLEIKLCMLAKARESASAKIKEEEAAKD", "test": "Activation of human DNMT1 at 10 uM relative to control"}, "[17]": {"target": "Protein arginine N-methyltransferase 5 (Homo sapiens) (UniProt O14744)", "sequence (O14744 whole entry)": "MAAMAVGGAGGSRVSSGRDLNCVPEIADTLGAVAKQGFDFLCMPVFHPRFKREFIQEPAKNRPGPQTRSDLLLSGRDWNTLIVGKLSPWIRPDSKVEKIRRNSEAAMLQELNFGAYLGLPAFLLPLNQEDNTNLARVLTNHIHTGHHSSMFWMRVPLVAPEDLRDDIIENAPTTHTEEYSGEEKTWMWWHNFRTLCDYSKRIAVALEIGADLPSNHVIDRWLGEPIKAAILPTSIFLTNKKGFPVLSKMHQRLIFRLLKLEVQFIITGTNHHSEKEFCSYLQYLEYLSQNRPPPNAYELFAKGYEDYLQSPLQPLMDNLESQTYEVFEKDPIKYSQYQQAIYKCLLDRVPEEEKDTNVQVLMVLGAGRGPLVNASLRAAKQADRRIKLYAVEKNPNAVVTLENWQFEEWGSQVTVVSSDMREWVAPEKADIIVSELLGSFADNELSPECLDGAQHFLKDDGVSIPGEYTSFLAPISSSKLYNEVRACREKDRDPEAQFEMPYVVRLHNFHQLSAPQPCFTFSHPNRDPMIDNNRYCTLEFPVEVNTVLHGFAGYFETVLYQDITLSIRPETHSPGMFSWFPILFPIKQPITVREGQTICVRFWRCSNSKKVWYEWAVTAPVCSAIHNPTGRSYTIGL", "test": "In vivo inhibition of PRMT5 in athymic nude mouse xenografted with human HCT-116 cells harboring wildtype MTAP assessed as decrease in SDMA level in tumor at 10 mg/kg, po administered once daily for 4 days and measured 4 hrs post last dose by ELISA relative to control", "format": "functional, organism-based", "details": "time 4.0 day"}, "[18]": {"target": "Protein arginine N-methyltransferase 5 (Homo sapiens) (UniProt O14744)", "test": "In vivo inhibition of PRMT5 in athymic nude mouse xenografted with human HCT-116 cells harboring wildtype MTAP assessed as decrease in SDMA level in tumor at 30 mg/kg, po administered once daily for 4 days and measured 4 hrs post last dose by ELISA relative to control", "format": "functional, organism-based", "details": "time 4.0 day"}, "[19]": {"target": "Protein arginine N-methyltransferase 5 (Homo sapiens) (UniProt O14744)", "test": "In vivo inhibition of PRMT5 in athymic nude mouse xenografted with human HCT-116 cells harboring wildtype MTAP assessed as decrease in SDMA level in tumor at 100 mg/kg, po administered once daily for 4 days and measured 4 hrs post last dose by ELISA relative to control", "format": "functional, organism-based", "details": "time 4.0 day"}, "[20]": {"target": "Protein arginine N-methyltransferase 5 (Homo sapiens) (UniProt O14744)", "test": "In vivo inhibition of PRMT5 in athymic nude mouse xenografted with MTAP-deleted human HCT-116 cells assessed as decrease in SDMA level in tumor at 3 mg/kg, po administered once daily for 4 days and measured 4 hrs post last dose by ELISA relative to control", "format": "functional, organism-based", "details": "time 4.0 day"}, "[21]": {"target": "Protein arginine N-methyltransferase 5 (Homo sapiens) (UniProt O14744)", "test": "In vivo inhibition of PRMT5 in athymic nude mouse xenografted with MTAP-deleted human HCT-116 cells assessed as decrease in SDMA level in tumor at 30 mg/kg, po administered once daily for 4 days and measured 4 hrs post last dose by ELISA relative to control", "format": "functional, organism-based", "details": "time 4.0 day"}, "[22]": {"target": "Protein arginine N-methyltransferase 5 (Homo sapiens) (UniProt O14744)", "test": "In vivo inhibition of PRMT5 in athymic nude mouse xenografted with MTAP-deleted human HCT-116 cells assessed as decrease in SDMA level in tumor at 100 mg/kg, po administered once daily for 4 days and measured 4 hrs post last dose by ELISA relative to control", "format": "functional, organism-based", "details": "time 4.0 day"}, "[23]": {"test_system": "HCT-116", "test": "Antitumor activity against human HCT-116 cells harboring wildtype MTAP xenografted in female athymic nude mouse model assessed as tumor growth inhibition at 3 to 100 mg/kg, po administered once daily for 14 days", "format": "functional, organism-based", "details": "dose 3-100 mg/kg, time 14.0 day"}, "[24]": {"test_system": "HCT-116", "test": "Antitumor activity against MTAP-deleted human HCT-116 cells xenografted in female athymic nude mouse model assessed as tumor growth inhibition at 30 mg/kg, po administered once daily for 14 days relative to control", "format": "functional", "details": "HCT-116, 336 h, time 14 day, read-out: TGI"}, "[25]": {"test": "Toxicity in female athymic nude mouse xenografted with human HCT-116 cells harboring wildtype MTAP assessed as body weight change at 3 to 100 mg/kg, po administered once daily for 14 days", "format": "organism-based", "details": "in vivo, 336 h, dose 3-100 mg/kg, time 14 day"}, "[26]": {"test_system": "BXPC-3", "test": "Antitumor activity against MTAP-deleted human BXPC-3 cells xenografted in athymic nude mouse model assessed as tumor growth inhibition at 30 mg/kg, po administered once daily for 26 days and measured 24 hrs post last dose relative to control", "format": "functional", "details": "BXPC-3, 648 h, time 27 day, read-out: TGI"}, "[27]": {"test_system": "BXPC-3", "test": "Antitumor activity against MTAP-deleted human BXPC-3 cells xenografted in athymic nude mouse model assessed as tumor growth inhibition at 100 mg/kg, po administered once daily for 26 days and measured 24 hrs post last dose relative to control", "format": "functional", "details": "BXPC-3, 648 h, time 27 day, read-out: TGI"}, "[28]": {"test": "Antitumor activity against MTAP-deleted human U-87 MG cells xenografted in female athymic nude mouse model assessed as tumor growth inhibition at 10 mg/kg, po administered once daily for 14 days and measured 24 hrs post last dose relative to control", "format": "functional, U-87MG ATCC", "details": "360 h, time 15 day, read-out: TGI"}, "[29]": {"test": "Toxicity in female athymic nude mouse xenografted with MTAP-deleted human U-87 MG cells assessed as effect on body weight at 10 to 100 mg/kg, po administered once daily for 14 days", "format": "organism-based", "details": "in vivo, 336 h, dose 10-100 mg/kg, time 14 day"}},
  "note": "The source made the active and inactive calls. No cut-off for these calls is given here.",
  "data": [
    {"compound": "Nc1nc2cnc(C(=O)N3CCOC[C@@H]3c3ccc(C(F)(F)F)cc3)cc2c2c1COC2", "values": [
      {"measurement": "Activity", "setting": "[1]", "value": "< 20", "unit": "%"},
      {"measurement": "IC50", "setting": "[2]", "value": 0.051, "unit": "µM"},
      {"measurement": "IC50", "setting": "[3]", "value": "> 30", "unit": "µM"},
      {"measurement": "IC50", "setting": "[4]", "value": 124, "unit": "µM"},
      {"measurement": "hepatocyte CLint", "setting": "[5]", "value": 31, "unit": "µL/min/1e6 cells"},
      {"measurement": "clearance", "setting": "[6]", "value": 28.3, "unit": "mL/min/kg"},
      {"measurement": "CL free", "setting": "[7]", "value": 283, "unit": "mL/min/kg"},
      {"measurement": "Activity", "setting": "[8]", "value": "Non-toxic"},
      {"measurement": "Activity", "setting": "[9]", "value": "Non-toxic"},
      {"measurement": "Papp at up to 10 µM", "setting": "[10]", "value": 33, "unit": "×10⁻⁶ cm/s"},
      {"measurement": "Kp uu", "setting": "[11]", "value": 0.14},
      {"measurement": "Kp uu", "setting": "[12]", "value": 0.24},
      {"measurement": "Kp uu", "setting": "[13]", "value": 0.2},
      {"measurement": "Kp uu", "setting": "[14]", "value": 0.15},
      {"measurement": "Kp uu", "setting": "[15]", "value": 0.2},
      {"measurement": "Activity", "setting": "[16]", "value": 32, "unit": "%"},
      {"measurement": "inhibition", "setting": "[17]", "value": 32, "unit": "%"},
      {"measurement": "inhibition", "setting": "[18]", "value": 48, "unit": "%"},
      {"measurement": "inhibition", "setting": "[19]", "value": 79, "unit": "%"},
      {"measurement": "inhibition", "setting": "[20]", "value": 69, "unit": "%"},
      {"measurement": "inhibition", "setting": "[21]", "value": 72, "unit": "%"},
      {"measurement": "inhibition", "setting": "[22]", "value": 71, "unit": "%"},
      {"measurement": "Activity", "setting": "[23]", "value": "inactive"},
      {"measurement": "inhibition in vivo at 30 mg/kg", "setting": "[24]", "value": 74, "unit": "%"},
      {"measurement": "Activity", "setting": "[25]", "value": "Non-toxic"},
      {"measurement": "inhibition in vivo at 30 mg/kg", "setting": "[26]", "value": 61, "unit": "%"},
      {"measurement": "inhibition in vivo at 100 mg/kg", "setting": "[27]", "value": 96, "unit": "%"},
      {"measurement": "inhibition in vivo at 10 mg/kg", "setting": "[28]", "value": 42, "unit": "%"},
      {"measurement": "Activity", "setting": "[29]", "value": "Non-toxic"}
    ]}
  ]
}
